According to patent US20110288151A1, “METHODS OF CHARACTERIZING BREAST CANCER AND IDENTIFYING TREATMENTS FOR SAME” (The Trustees of the University of Pennsylvania, priority 2008, published 2011):

Assays:
[1] = test system: Rac1; assay: Rac1-GTP GST pull down, HRG-treated MCF-10A cells; format: cell-based, human; details: serum-starved MCF-10A cells, HRG 100 ng/ml 5 min, pretreatment (1 h; PTX 24 h)
Procedure: The image of the immunoblot depicts Rac1-GTP levels as determined by a GST pull down assay of serum-starved MCF-10A cells treated with HRG (100 ng/ml, 5 min), with or without pretreatment with PI3K inhibitor wortmannin, EGFR inhibitor AG1478, PI3Kγ inhibitor 5-quinoxalin-6-ylmethylene-thiazolidine-2,4-dione (1 mM, 1 h), or PTX (24 h) (FIG. 17).

[2] = test system: Rac; assay: Rac-GTP pull-down, HRG-treated MCF-7 cells; format: cell-based, human; details: HRG 100 ng/ml, 5 min, pharmacological inhibitor
Procedure: FIG. […] Rac-GTP levels were determined by a Rac-GTP pull-down assay of lysates of the treated cells. […]
As described above, Gβγ subunits are known to activate PI3Kγ. As Rac activation by HRG is affected by PTX as shown in Example 10, the involvement of PI3Kγ in the response was investigated.
To further investigate the role of PI3Kγ, PI3Kγ depleted MCF-7 cell lines were generated using PI3Kγ (#1 and #2) and non-target sequence (NTS) control shRNA lentiviruses (Sigma) (FIG. 16B).
To determine whether CXCR4 is involved in HRG responses, CXCR4 expression was knocked down using RNAi in MCF-7 cells. […] Such a mechanism has important implications in tumorigenesis and metastatic dissemination.

[3] = test system: Rac; assay: Rac activation by HRG or EGF in breast cancer cell lines (GST-Raf-PBD pull-down); format: cell-based; details: various breast cancer cell lines, HRG 10 ng/mL or EGF 100 ng/mL, 0-5 minutes, n=3
[4] = test system: T-47D cells; assay: Membrane ruffles in T-47D cells; format: cell-based, human; details: T-47D cells treated with HRG or EGF
Procedure: HRG is known to cause morphological changes, including the formation of lamellipodia and membrane ruffles.
FIG. 14E is a bar graph depicting reduced colony formation, in response to treatment with HRG (10 ng/mL), in the P-Rex1 depleted cell lines of FIG. 14A as compared to control cells.

[5] = test system: P-Rex1; assay: P-Rex1 sub-cellular localization in MCF-7 cells (fluorescence microscopy); format: cell-based, human; details: HRG 10 ng/mL 10 min, Wortmannin 1 μM, antibodies 10 μg/mL 1 hr
Procedure: Cells were then fixed and stained with the antibody of Example 1 to detect P-Rex1 and subject to staining with a secondary Cy2-conjugated antibody, and visualized with fluorescence microscopy. […] (FIG. 12A and FIG. 12B).
To test whether this effect of HRG on P-Rex1 localization was dependent on PI3K, MCF-7 breast cancer cells were serum starved for 48 hours, treated for 10 minutes with HRG (10 ng/mL), with or without Wortmannin (1 μM), an anti-ErbB3 blocking antibody (10 μg/mL, 1 hr) or control IgG and stained and visualized (FIG. 12B).

## O=C1NC(=O)C(=Cc2ccc3nccnc3c2)S1 [5-quinoxalin-6-ylmethylene-thiazolidine-2,4-dione]
[1]
  sensitivity of Rac1 activation by HRG: insensitive
[2]
  Rac activation by HRG: dose-dependently reduced Rac activation by HRG

## EGF: epidermal growth factor (NSDSECPLSHDGYCLHDGVCMYIEALDKYACNCVVGYIGERCQYRDLKWWELR; UniProt P01133 971-1023, looked up)
[3]
  Rac activation: activate Rac
[4]
  ruffle formation on ligand treatment: characteristic ruffles were observed

## CC(C)(C)n1nc(-c2ccc(Cl)cc2)c2c(N)ncnc21 [PP2]
[5]
  effect on HRG-induced P-Rex1 localization: did not have such an effect

## COc1cc2ncnc(Nc3cccc(Cl)c3)c2cc1OC [AG1478]
[1]
  sensitivity of Rac1 activation by HRG: blocked Rac activation
